Targets include GSK3B (Homo sapiens, UniProt P49841); FER (Homo sapiens, UniProt P16591); PRKG1 (Homo sapiens, UniProt Q13976); AKT1 (Homo sapiens, UniProt P31749); CDK9 (Homo sapiens, UniProt P50750); AURKC (Homo sapiens, UniProt Q9UQB9); AXL (Homo sapiens, UniProt P30530); EPHA1 (Homo sapiens, UniProt P21709); ACVR1 (Homo sapiens, UniProt Q04771); YES1 (Homo sapiens, UniProt P07947); MAP4K2 (Homo sapiens, UniProt Q12851); FYN (Homo sapiens, UniProt P06241); AURKB (Homo sapiens, UniProt Q96GD4); PIP4K2B (Homo sapiens, UniProt P78356); EIF2AK4 (Homo sapiens, UniProt Q9P2K8); TYK2 (Homo sapiens, UniProt P29597); ULK3 (Homo sapiens, UniProt Q6PHR2); PIK3R4 (Homo sapiens, UniProt Q99570); TESK1 (Homo sapiens, UniProt Q15569); IKBKB (Homo sapiens, UniProt O14920); EPHB6 (Homo sapiens, UniProt O15197).

Experiment in all cases: biochemical
What all share (design): species or system HEK293/K-562/placenta mixed human extract; Kinobeads chemoproteomic competition binding, quantified by TMT LC-MS/MS, dose response up to 20 uM

pIC50: −log10 of the molar value.

FYN, sequence (P06241 whole entry): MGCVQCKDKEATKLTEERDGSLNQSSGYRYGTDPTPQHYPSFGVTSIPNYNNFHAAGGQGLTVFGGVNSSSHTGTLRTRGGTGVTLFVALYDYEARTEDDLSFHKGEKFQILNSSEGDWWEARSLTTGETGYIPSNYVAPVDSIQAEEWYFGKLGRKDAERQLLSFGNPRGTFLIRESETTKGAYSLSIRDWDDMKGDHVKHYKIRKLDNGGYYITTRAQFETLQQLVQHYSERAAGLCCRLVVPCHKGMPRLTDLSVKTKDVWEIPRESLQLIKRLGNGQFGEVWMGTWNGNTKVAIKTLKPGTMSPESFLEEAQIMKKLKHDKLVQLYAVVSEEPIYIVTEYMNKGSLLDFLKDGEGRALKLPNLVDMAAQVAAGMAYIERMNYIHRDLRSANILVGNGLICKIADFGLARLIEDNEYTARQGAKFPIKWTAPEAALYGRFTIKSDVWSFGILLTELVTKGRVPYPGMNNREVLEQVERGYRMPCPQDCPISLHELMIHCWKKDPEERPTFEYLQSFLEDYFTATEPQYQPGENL
ACVR1, sequence (Q04771 whole entry): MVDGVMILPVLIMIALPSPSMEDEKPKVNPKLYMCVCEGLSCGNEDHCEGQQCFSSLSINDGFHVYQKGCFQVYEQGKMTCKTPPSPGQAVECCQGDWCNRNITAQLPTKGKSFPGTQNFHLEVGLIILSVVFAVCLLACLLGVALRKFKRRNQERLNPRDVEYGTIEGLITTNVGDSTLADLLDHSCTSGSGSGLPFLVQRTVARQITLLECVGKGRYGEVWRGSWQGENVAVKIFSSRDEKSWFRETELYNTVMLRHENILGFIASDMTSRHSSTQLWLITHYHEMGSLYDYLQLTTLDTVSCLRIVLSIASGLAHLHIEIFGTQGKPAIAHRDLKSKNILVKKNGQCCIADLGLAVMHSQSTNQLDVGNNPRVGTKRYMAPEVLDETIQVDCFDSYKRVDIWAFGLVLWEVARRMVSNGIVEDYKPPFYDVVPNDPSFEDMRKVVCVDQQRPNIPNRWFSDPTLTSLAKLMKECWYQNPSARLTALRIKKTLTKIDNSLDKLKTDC
TYK2, sequence (P29597 whole entry): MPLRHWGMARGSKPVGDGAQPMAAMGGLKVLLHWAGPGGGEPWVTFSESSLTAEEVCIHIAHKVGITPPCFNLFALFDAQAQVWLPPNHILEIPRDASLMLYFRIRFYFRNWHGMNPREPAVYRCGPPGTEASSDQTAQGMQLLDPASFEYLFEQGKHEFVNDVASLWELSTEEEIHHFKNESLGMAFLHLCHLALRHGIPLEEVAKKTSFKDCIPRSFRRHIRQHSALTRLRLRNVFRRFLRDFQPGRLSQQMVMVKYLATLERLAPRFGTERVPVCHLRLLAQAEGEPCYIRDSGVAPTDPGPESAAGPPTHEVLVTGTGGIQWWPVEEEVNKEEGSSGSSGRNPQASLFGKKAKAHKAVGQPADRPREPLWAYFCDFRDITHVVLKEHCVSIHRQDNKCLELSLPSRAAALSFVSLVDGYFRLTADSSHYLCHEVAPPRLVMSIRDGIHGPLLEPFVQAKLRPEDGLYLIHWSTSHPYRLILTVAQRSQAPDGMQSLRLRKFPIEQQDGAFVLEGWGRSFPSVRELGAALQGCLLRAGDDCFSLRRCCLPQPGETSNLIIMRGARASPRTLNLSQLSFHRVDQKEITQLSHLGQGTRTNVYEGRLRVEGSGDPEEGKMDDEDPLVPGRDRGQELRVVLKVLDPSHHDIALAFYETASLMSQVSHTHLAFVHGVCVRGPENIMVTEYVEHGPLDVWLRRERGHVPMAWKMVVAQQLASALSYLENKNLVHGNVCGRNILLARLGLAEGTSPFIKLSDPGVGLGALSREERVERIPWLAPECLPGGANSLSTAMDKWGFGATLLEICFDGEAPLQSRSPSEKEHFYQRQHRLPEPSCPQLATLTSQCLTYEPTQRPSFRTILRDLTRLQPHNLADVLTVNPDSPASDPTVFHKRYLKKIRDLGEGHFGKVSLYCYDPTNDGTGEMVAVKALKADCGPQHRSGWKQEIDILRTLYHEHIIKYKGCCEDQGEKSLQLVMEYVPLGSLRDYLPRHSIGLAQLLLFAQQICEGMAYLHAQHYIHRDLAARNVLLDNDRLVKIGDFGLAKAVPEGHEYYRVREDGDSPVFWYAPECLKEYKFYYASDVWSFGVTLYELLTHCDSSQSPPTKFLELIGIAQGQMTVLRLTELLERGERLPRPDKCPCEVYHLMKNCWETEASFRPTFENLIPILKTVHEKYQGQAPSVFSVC
AXL, sequence (P30530 whole entry): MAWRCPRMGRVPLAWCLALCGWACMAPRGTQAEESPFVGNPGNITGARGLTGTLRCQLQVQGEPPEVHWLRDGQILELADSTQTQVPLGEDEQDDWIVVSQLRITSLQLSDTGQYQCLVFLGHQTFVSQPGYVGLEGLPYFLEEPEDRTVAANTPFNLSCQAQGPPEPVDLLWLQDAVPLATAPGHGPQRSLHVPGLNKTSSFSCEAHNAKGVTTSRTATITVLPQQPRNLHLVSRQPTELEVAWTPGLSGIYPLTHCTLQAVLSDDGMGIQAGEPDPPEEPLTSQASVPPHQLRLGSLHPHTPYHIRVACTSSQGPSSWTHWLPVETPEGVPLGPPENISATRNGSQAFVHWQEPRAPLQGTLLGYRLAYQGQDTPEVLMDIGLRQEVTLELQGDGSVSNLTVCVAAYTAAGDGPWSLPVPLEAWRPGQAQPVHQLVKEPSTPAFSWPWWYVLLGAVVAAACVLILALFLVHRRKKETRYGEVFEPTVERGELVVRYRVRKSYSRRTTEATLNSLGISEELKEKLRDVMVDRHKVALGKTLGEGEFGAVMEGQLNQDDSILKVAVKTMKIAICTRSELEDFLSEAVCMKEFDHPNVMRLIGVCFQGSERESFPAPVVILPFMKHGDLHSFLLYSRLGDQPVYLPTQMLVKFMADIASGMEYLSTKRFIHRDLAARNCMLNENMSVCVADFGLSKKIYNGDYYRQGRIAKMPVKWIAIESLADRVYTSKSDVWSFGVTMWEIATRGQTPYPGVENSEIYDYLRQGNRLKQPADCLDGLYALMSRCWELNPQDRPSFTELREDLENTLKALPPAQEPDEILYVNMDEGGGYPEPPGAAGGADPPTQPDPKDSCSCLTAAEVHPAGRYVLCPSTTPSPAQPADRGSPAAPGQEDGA
PIP4K2B, sequence (P78356 whole entry): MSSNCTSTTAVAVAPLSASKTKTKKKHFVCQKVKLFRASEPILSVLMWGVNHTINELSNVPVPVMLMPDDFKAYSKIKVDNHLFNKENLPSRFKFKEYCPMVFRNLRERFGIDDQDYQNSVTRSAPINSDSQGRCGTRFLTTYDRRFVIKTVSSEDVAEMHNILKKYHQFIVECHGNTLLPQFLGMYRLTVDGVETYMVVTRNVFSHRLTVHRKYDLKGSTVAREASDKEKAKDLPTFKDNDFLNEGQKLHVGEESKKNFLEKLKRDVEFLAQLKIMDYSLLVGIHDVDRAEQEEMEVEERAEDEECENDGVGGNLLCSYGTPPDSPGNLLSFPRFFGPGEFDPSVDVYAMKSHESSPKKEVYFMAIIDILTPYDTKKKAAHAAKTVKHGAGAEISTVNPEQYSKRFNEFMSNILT
MAP4K2, sequence (Q12851 whole entry): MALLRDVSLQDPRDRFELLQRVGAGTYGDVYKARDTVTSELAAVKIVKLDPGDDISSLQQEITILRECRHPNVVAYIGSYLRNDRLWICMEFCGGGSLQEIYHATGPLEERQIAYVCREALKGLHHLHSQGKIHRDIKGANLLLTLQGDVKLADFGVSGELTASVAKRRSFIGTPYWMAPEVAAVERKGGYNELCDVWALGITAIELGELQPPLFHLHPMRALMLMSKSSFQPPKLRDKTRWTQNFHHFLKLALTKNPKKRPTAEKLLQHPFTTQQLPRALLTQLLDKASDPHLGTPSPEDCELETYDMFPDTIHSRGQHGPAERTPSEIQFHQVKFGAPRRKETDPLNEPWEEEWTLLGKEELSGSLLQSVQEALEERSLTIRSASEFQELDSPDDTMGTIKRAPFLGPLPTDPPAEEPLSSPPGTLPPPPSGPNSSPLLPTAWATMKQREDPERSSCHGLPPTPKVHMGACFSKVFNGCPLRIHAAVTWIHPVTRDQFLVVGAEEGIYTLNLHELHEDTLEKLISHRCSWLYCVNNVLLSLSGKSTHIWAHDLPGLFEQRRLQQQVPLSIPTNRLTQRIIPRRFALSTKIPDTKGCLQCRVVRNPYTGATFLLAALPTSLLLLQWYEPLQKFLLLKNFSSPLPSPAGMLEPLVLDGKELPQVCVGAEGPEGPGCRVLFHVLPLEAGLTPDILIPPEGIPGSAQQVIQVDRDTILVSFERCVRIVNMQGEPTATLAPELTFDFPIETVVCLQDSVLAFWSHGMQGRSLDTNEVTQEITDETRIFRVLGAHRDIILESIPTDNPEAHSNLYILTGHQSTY
AKT1, sequence (P31749 whole entry): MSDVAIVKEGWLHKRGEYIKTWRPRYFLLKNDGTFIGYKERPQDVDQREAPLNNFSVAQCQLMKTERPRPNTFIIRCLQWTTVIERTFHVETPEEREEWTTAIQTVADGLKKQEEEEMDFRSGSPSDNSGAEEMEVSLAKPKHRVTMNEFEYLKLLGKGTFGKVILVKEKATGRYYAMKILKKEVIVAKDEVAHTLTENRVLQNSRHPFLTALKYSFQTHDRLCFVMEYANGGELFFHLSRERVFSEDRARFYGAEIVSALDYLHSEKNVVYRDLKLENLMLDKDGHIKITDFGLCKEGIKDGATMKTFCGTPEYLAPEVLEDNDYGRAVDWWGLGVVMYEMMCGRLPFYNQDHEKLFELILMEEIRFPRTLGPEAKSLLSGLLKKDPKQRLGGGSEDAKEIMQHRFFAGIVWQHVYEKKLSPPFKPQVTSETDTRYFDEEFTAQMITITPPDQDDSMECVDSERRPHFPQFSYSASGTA

For the compound `COc1ccccc1-c1n[nH]c2nc(N[C@H]3CC[C@H](NS(=O)(=O)CCC(F)(F)F)CC3)nc(OC)c12` [compound 31, 3,3,3-Trifluoro-N-(trans-4-((4-methoxy-3-(2-methoxyphenyl)-1H-pyrazolo[3,4-d]pyrimidin-6-yl)amino)cyclohexyl)propane-1-sulfonamide], the pIC50 – broadly, the negative decadic logarithm of the IC50, by convention in mol/L – on GSK3B is not above 4.70; on FER it was not above 4.70; at PRKG1, not above 4.70; at AKT1 it was not above 4.70; on CDK9 it was 5.44; at AURKC it was not above 4.70. In addition, the pIC50 at AXL, at EPHA1, at ACVR1, at YES1, at MAP4K2 and on FYN was not above 4.70 throughout. In addition, the pIC50 on AURKB is not above 4.70; on PIP4K2B it was 5.03; on EIF2AK4 it was not above 4.70; at TYK2, not above 4.70; at ULK3, not above 4.70; on PIK3R4, not above 4.70. The pIC50 on TESK1, on IKBKB and at EPHB6 was not above 4.70 in each case.

For the origin of these results see PMC6407917, “Identification of GSK3186899/DDD853651 as a Preclinical Development Candidate for the Treatment of Visceral Leishmaniasis” (Journal of Medicinal Chemistry, 2018).
